Key:
[1] = target: T1, L858R/T790M/C797S EGFR (Homo sapiens, UniProt P00533, C797S/L858R/T790M); test: EGFR degradation HTRF assay in H1975-clone #25 (LTC) cells; assay type: cell-based; details: 16h treatment; for DC50: H1975 # 25-LTC (L858R/T790M/C797S), HTRF; for Dmax: NCI-H1975, H1975 # 25-LTC (L858R/T790M/C797S), maximum percentage of degradation
T1 construct: expressed in transfected cells; host or cells: H1975 clone #25 (lentiviral over-expression, endogenous EGFR knocked out by sgRNA)
From the text: (§1) H1975-clone #28(Del19/T790M/C797S, or abbr: DTC), H1975-clone #23(Del19/C797S, or abbr: DC), H1975-clone #25(L858R/T790M/C797S, or abbr: LTC) and H1975-clone #8 (L858R/C797S, or abbr: LC). EGFR-Del19:T790M/C797S, EGFR-Del19/C797S, EGFR-L858R/T790M/C797S and EGFR-L858R/C797S were stably expressed in H1975 cell lines by lentivirus-mediated over-expression, respectively. The EGFR over-expressed cells then underwent knockout, in which the EGFR targeting sgRNA was designed to only target the endogenous EGFR copies and preserve the exogenous EGFR copies. Followed by the knockout, the edited H1975 cells were seeded in 96 well plates at the concentration of […], cultured for about 2 weeks to allow single clones formation. The formed clones were screened by DNA sequencing and whole exon sequencing analysis for the desired edition. H1975-clone #28, H1975-clone #23, H1975-clone #25 and H1975-clone #8 were finally confirmed as homozygous Del19/T790M/C797S EGFR, Dell9/C797S EGFR, L858R/T790M/C797S EGFR and L858R/C797S EGFR clones, respectively.
(§2) H1975-#25, H1975-#28, H1975-#23 and H1975-#8 cells are treated with compounds diluted in 0.2% DMSO cell culture medium on day 2, incubate for 16h, 37° C., 5% CO2. the final concentration of compounds in all assay is start with 10 uM, 5-fold dilution, total 8 doses were included.
(§3) After 16h treatment, add HTRF lysis buffer to each well; seal the plate and incubate 1 hour at room temperature on a plate shaker; Once the cells are lysed, 16 μL of cell lysate are transferred to a PE 384-well HTRF detection plate; 4 μL of pre-mixed HTRF antibodies are added to each well; Cover the plate with a plate sealer, spin 1000 rpm for 1 min, Incubate overnight at room temperature; Read on BMG PheraStar with HTRF protocol (337 nm-665 nm-620 nm).
(§4) The IC50 (DC50) value of a compound can be obtained by fitting the following equation
(§5) Y=Bottom+(TOP−Bottom)/(1+((IC50/X)^hillslope))
(§6) Wherein, X and Y are known values, and IC50, Hillslope, Top and Bottom are the parameters obtained by fitting with software. Y is the inhibition percentage (calculated from the equation), X is the concentration of the compound: IC50 is the concentration of the compound when the 50% inhibition is reached. The smaller the IC50 value is, the stronger the inhibitory ability of the compound is. Vice versa, the higher the IC50 value is, the weaker the ability the inhibitory ability of the compound is: Hillslope represents the slope of the fitted curve, generally around 1*; Bottom represents the minimum value of the curve obtained by data fitting, which is generally 0%±20%; Top represents the maximum value of the curve obtained by data fitting, which is generally 100%±20%. The experimental data were fitted by calculating and analyzing with Dotmatics data analysis software.

[2] = test system: Del19/T790M/C797S EGFR; test: EGFR degradation HTRF assay in H1975-clone #28 (DTC) cells; assay type: cell-based; details: H1975 # 28 DTC (Del19/T790M/C797S), 16h treatment; for DC50: HTRF; for Dmax (%): maximum percentage of degradation
From the text: as §1, §2, §3, §4, §5, §6

T1 sequence (P00533 25-1210 T790M/C797S/L858R): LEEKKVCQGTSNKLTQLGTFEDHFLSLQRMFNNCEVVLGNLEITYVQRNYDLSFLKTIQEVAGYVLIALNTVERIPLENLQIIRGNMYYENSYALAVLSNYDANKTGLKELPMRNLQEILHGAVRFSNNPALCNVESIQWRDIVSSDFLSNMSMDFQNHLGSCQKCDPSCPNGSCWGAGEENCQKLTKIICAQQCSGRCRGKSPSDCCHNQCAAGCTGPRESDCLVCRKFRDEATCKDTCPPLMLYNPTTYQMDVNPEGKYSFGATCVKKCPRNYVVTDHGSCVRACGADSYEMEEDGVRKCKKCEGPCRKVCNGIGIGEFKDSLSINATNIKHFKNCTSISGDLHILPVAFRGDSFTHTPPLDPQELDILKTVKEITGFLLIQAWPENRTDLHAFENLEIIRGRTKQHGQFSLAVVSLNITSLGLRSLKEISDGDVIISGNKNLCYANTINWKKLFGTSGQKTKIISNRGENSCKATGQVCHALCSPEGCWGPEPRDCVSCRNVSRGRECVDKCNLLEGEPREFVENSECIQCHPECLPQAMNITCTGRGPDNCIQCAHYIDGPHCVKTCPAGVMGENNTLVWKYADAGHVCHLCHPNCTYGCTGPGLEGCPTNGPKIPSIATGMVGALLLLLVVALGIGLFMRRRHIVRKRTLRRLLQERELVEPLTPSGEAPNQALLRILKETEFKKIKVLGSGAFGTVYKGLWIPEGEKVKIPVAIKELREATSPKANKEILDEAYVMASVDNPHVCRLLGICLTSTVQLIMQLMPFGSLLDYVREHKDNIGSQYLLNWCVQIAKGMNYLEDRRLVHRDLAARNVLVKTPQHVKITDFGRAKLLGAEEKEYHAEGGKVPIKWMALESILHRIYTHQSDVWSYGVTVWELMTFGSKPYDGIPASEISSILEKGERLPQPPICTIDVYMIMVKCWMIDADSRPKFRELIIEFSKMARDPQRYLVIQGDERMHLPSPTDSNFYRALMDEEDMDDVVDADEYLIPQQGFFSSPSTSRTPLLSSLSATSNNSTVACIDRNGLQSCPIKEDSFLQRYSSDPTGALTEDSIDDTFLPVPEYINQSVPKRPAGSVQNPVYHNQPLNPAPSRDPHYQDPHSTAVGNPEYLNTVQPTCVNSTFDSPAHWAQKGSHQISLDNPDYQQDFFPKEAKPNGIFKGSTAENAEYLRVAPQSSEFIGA

DC50 [1] [pM]	Dmax [1] [%]	DC50 [2] [pM]	SMILES	Dmax (%) [2] [%]
900	84.4	700	Cc1cc2cc(n1)-c1cnn(C)c1OCCC[C@@H](C)CN1/C(=N/C2=O)Nc2ccc(CN3CCN(C(=O)C4CN(c5cc(F)c([C@H]6CCC(=O)NC6=O)c(F)c5)C4)CC3)cc21 [Example 76, (R)-3-(2,6-difluoro-4-(3-(4-(((R,E)-1^1,2^6,7-trimethyl-3-oxo-5^2,5-dihydro-1^1H,5^1H-11-oxa-4-aza-5(2,1)-benzo[d]imidazola-2(2,4)-pyridina-1(4,5)-pyrazolacycloundecaphane-5^6-yl)methyl)piperazine-1-carbonyl)azetidin-1-yl)phenyl)piperidine-2,6-dione]	75.8
1700	83.4	2200	Cc1cc2cc(n1)-c1cnn(C)c1OCCC[C@@H](C)CN1/C(=N/C2=O)Nc2ccc(CN3CCN(C(=O)[C@H]4CN(c5cc(F)c([C@H]6CCC(=O)NC6=O)c(F)c5)CC4(C)C)CC3)cc21 [Example 77, (R)-3-(4-((R)-3,3-dimethyl-4-(4-(((R,E)-1^1,2^6,7-trimethyl-3-oxo-5^2,5^3-dihydro-1^1H,5^1H-11-oxa-4-aza-5(2,1)-benzo[d]imidazola-2(2,4)-pyridina-1(4,5)-pyrazolacycloundecaphane-5-yl)methyl)piperazine-1-carbonyl)pyrrolidin-1-yl)-2,6-difluorophenyl)piperidine-2,6-dione]	78.3
500	90.2	700	Cc1cc2cc(n1)-c1cnn(C)c1OCCC[C@@H](C)CN1/C(=N/C2=O)Nc2ccc(CN3CC4(C3)CN(C(=O)[C@@H]3CCN(c5cc(F)c([C@H]6CCC(=O)NC6=O)c(F)c5)C3)C4)cc21 [Example 78, (R)-3-(2,6-difluoro-4-((R)-3-(6-(((R,E)-1^1,2^6,7-trimethyl-3-oxo-5^2,5^3-dihydro-1^1H,5^1H-11-oxa-4-aza-5(2,1)-benzo[d]imidazola-2(2,4)-pyridina-1(4,5)-pyrazolacycloundecaphane-5^6-yl)methyl)-2,6-diazaspiro[3.3]heptane-2-carbonyl)pyrrolidin-1-yl)phenyl)piperidine-2,6-dione]	82.6
600	90.6	700	Cc1cc2cc(n1)-c1cnn(C)c1OCCC[C@@H](C)CN1/C(=N/C2=O)Nc2ccc(CN3CC4(C3)CN(C(=O)C3CN(c5cc(F)c([C@H]6CCC(=O)NC6=O)c(F)c5)C3)C4)cc21 [Example 79, (R)-3-(2,6-difluoro-4-(3-(6-(((R,E)-1^1,2^6,7-trimethyl-3-oxo-5^2,5^3-dihydro-1^1H,5^1H-11-oxa-4-aza-5(2, 1)-benzo[d]imidazola-2(2,4)-pyridina-1(4,5)-pyrazolacycloundecaphane-5^6-yl)methyl)-2,6-diazaspiro[3.3]heptane-2-carbonyl)azetidin-1-yl)phenyl)piperidine-2,6-dione]	82.2
800	87.5	800	Cc1cc2cc(n1)-c1cnn(C)c1OCCC[C@@H](C)CN1/C(=N/C2=O)Nc2ccc(CN3CC4(C3)CN(C(=O)[C@H]3CN(c5cc(F)c([C@H]6CCC(=O)NC6=O)c(F)c5)CC3(C)C)C4)cc21 [Example 80, (R)-3-(4-((R)-3,3-dimethyl-4-(6-(((R,E)-1^1,2^6,7-trimethyl-3-oxo-5^2,5^3-dihydro-1^1H,5^1H-11-oxa-4-aza-5(2,1)-benzo[d]imidazola-2(2,4)-pyridina-1(4,5)-pyrazolacycloundecaphane-5^6-yl)methyl)-2,6-diazaspiro[3.3]heptane-2-carbonyl)pyrrolidin-1-yl)-2,6-difluorophenyl)piperidine-2,6-dione]	87.0
600	88.6	700	Cc1cc2cc(n1)-c1cnn(C)c1OCCC[C@@H](C)CN1/C(=N/C2=O)Nc2ccc(CN3C[C@@H]4C[C@H]3CN4C(=O)[C@@H]3CCN(c4cc(F)c([C@H]5CCC(=O)NC5=O)c(F)c4)C3)cc21 [Example 82, (R)-3-(2,6-difluoro-4-((R)-3-((1S,4S)-5-(((R,E)-1^1,2^6,7-trimethyl-3-oxo-5^2,5^3-dihydro-1^1H,5^1H-11-oxa-4-aza-5(2,1)-benzo[d]imidazola-2(2,4)-pyridina-1(4,5)-pyrazolacycloundecaphane-5^6-yl)methyl)-2,5-diazabicyclo[2.2.1]heptane-2-carbonyl)pyrrolidin-1-yl)phenyl)piperidine-2,6-dione]	78.4
2900	92.7	800	Cc1cc2cc(n1)-c1cnn(C)c1OCCC[C@@H](C)CN1/C(=N/C2=O)Nc2ccc(CN3CC4(CCN(C(=O)[C@@H]5CCN(c6cc(F)c([C@H]7CCC(=O)NC7=O)c(F)c6)C5)CC4)C3)cc21 [Example 84, (R)-3-(2,6-difluoro-4-((R)-3-(2-(((R,E)-1^1,2^6,7-trimethyl-3-oxo-5^2,5^3-dihydro-1^1H,5^1H-11-oxa-4-aza-5(2,1)-benzo[d]imidazola-2(2,4)-pyridina-1(4,5)-pyrazolacycloundecaphane-5^6-yl)methyl)-2,7-diazaspiro[3.5]nonane-7-carbonyl)pyrrolidin-1-yl)phenyl)piperidine-2,6-dione]	86.1
500	90.6	700	Cc1cc2cc(n1)-c1cnn(C)c1OCCC[C@@H](C)CN1/C(=N/C2=O)Nc2ccc(CN3CCN(C(=O)C4CN(c5ccc(F)c6c5n(C)c(=O)n6C5CCC(=O)NC5=O)C4)CC3)cc21 (stereo partly drawn) [Example 94, 3-(7-fluoro-3-methyl-2-oxo-4-(3-(4-(((R,E)-1^1,2^6,7-trimethyl-3-oxo-5^2,5^3-dihydro-1^1H,5^1H-11-oxa-4-aza-5(2,1)-benzo[d]imidazola-2(2,4)-pyridina-1(4,5)-pyrazolacycloundecaphane-5^6-yl)methyl)piperazine-1-carbonyl)azetidin-1-yl)-2,3-dihydro-1H-benzo[d]imidazol-1-yl)piperidine-2,6-dione]	80.5
600	87.8	400	Cc1cc2cc(n1)-c1cnn(C)c1OCCC[C@@H](C)CN1/C(=N/C2=O)Nc2ccc(C(=O)N3CCN(C(=O)[C@@H]4CCN(c5cc(F)c([C@H]6CCC(=O)NC6=O)c(F)c5)C4)CC3)cc21 [Example 96, (R)-3-(2,6-difluoro-4-((R)-3-(4-((R,E)-1^1,2^6,7-trimethyl-3-oxo-5^2,5^3-dihydro-1^1H,5^1H-11-oxa-4-aza-5(2,1)-benzo[d]imidazola-2(2,4)-pyridina-1(4,5)-pyrazolacycloundecaphane-5^6-carbonyl)piperazine-1-carbonyl)pyrrolidin-1-yl)phenyl)piperidine-2,6-dione]	84.3

SMILES	DC50 [1] [pM]	Dmax [1] [%]	DC50 [2] [pM]	Dmax (%) [2] [%]
Cc1cc2cc(n1)-c1cnn(C)c1OCCC[C@@H](C)CN1/C(=N/C2=O)Nc2ccc(CN3CC4CCC(C3)N4C(=O)[C@@H]3CCN(c4cc(F)c([C@H]5CCC(=O)NC5=O)c(F)c4)C3)cc21 [Example 83, (3R)-3-(2,6-difluoro-4-((3R)-3-(3-(((R,E)-1^1,2^6,7-trimethyl-3-oxo-5^2,5^3-dihydro-1^1H,5^1H-11-oxa-4-aza-5(2,1)-benzo[d]imidazola-2(2,4)-pyridina-1(4,5)-pyrazolacycloundecaphane-5^6-yl)methyl)-3,8-diazabicyclo[3.2.1]octane-8-carbonyl)pyrrolidin-1-yl)phenyl)piperidine-2,6-dione]	2000	82.5	2000	73.0
